Laboratory results published in the supplement of paper PMC11451515.

Columns and labels:
Conditions in all cases: 48 h
NOMO1 [1] = assay: cell viability relative to DMSO control; higher = less cytotoxic
Method in brief: (§1)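 Viability is expressed as a percentage of DMSO wells within each plate, and cell-free wells serve as background. Seeding densities in the 1536-well plates (5 μl) were 500 cells/well for NOMO1 or SEM leukemia cells and 1000 cells/well for P12-Ichikawa. Each line was adapted for at least four passages in each medium. Library compounds in DMSO were pin-dosed at 47 μM to 0.79 nM (11 points, threefold), and CellTiter-Glo One luminescence was read after 48 h at 37°C.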

SEM cells [2] = assay: as above
Method in brief: as §1

P12-Ichikawa [3] = assay: as above
Method in brief: as §1

NOMO1 [4] = assay: AUC of viability dose-response curve (% viability x log10 dose units); higher = less sensitive
Method in brief: (§2)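 In 1536-well plates, leukemia cells adapted to each medium (500 or 1000 cells/well) were exposed for 48 h at 37°C to library compounds in DMSO across 11 threefold doses, 47 μM down to 0.79 nM. Viability was read by CellTiter-Glo One luminescence and normalised per plate to DMSO and cell-free wells. A four-parameter log-logistic fit over log10 doses was integrated by trapezoidal rule. This yielded the area under the curve, with over-full-viability curves scaled and quality-control failures dropped.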

SEM cells [5] = assay: as above
Method in brief: as §2

P12-Ichikawa [6] = assay: as above
Method in brief: as §2

Cn1cnc([N+](=O)[O-])c1Sc1ncnc2nc[nH]c12
cell viability [%]
Conditions | NOMO1 [1] | P12-Ichikawa [3] | SEM cells [2]
HPLM + 10% dialyzed FBS, 0.000781 µM | 79.8 | 95.4 | 83.9
HPLM + 10% dialyzed FBS, 0.00234 µM | 79.6 | 97 | 90.7
HPLM + 10% dialyzed FBS, 0.00702 µM | 107 | 98.4 | 99.3
HPLM + 10% dialyzed FBS, 0.0211 µM | 99.1 | 95.7 | 88
HPLM + 10% dialyzed FBS, 0.0632 µM | 109 | 102 | 101
HPLM + 10% dialyzed FBS, 0.19 µM | 93.9 | 97.7 | 100
HPLM + 10% dialyzed FBS, 0.569 µM | 114 | 96.5 | 95.7
HPLM + 10% dialyzed FBS, 1.71 µM | 89.9 | 86 | 83
HPLM + 10% dialyzed FBS, 5.12 µM | 6.49 | 36.2 | 103
HPLM + 10% dialyzed FBS, 15.4 µM | 6.93 | 28.4 | 24.4
HPLM + 10% dialyzed FBS, 46.1 µM | 7.54 | 29.2 | 20.8
RPMI 5 mM glucose + 10% FBS, 0.000781 µM | 79.6 | 81.8 | 87.3
RPMI 5 mM glucose + 10% FBS, 0.00234 µM | 87.5 | 88.5 | 86.8
RPMI 5 mM glucose + 10% FBS, 0.00702 µM | 91.3 | 82.1 | 93.4
RPMI 5 mM glucose + 10% FBS, 0.0211 µM | 96.6 | 88.5 | 108
RPMI 5 mM glucose + 10% FBS, 0.0632 µM | 85.1 | 99.2 | 88.2
RPMI 5 mM glucose + 10% FBS, 0.19 µM | 95.6 | 95.1 | 92.1
RPMI 5 mM glucose + 10% FBS, 0.569 µM | 82.8 | 90.9 | 100
RPMI 5 mM glucose + 10% FBS, 1.71 µM | 73.1 | 79.9 | 43.5
RPMI 5 mM glucose + 10% FBS, 5.12 µM | 57.4 | 64.5 | 23.8
RPMI 5 mM glucose + 10% FBS, 15.4 µM | 6.27 | 28.3 | 24.9
RPMI 5 mM glucose + 10% FBS, 46.1 µM | 5.14 | 19.4 | 15.4
RPMI 5 mM glucose + 10% dialyzed FBS, 0.000781 µM | 88.9 | 88.9 | 90.3
RPMI 5 mM glucose + 10% dialyzed FBS, 0.00234 µM | 96.7 | 95.3 | 82.8
RPMI 5 mM glucose + 10% dialyzed FBS, 0.00702 µM | 93.3 | 98.1 | 84.6
RPMI 5 mM glucose + 10% dialyzed FBS, 0.0211 µM | 90 | 91 | 71.8
RPMI 5 mM glucose + 10% dialyzed FBS, 0.0632 µM | 98.6 | 97.2 | 88.9
RPMI 5 mM glucose + 10% dialyzed FBS, 0.19 µM | 92.2 | 92.1 | 89.1
RPMI 5 mM glucose + 10% dialyzed FBS, 0.569 µM | 90 | 88.5 | 77
RPMI 5 mM glucose + 10% dialyzed FBS, 1.71 µM | 77.9 | 72.6 | 32.1
RPMI 5 mM glucose + 10% dialyzed FBS, 5.12 µM | 48.6 | 63.2 | 28.7
RPMI 5 mM glucose + 10% dialyzed FBS, 15.4 µM | 6.5 | 21.2 | 20.7
RPMI 5 mM glucose + 10% dialyzed FBS, 46.1 µM | 6.03 | 13.7 | 14.3

AUC of viability dose-response curve
Conditions | NOMO1 [4] | P12-Ichikawa [6] | SEM cells [5]
HPLM + 10% dialyzed FBS | 353 | 381 | 398
RPMI 5 mM glucose + 10% FBS | 342 | 365 | 337
RPMI 5 mM glucose + 10% dialyzed FBS | 353 | 367 | 299

CC(C)(Sc1ccc(CCN(CCCCC2CCCCC2)C(=O)NC2CCCCC2)cc1)C(=O)O
cell viability [%]
Conditions | NOMO1 [1] | P12-Ichikawa [3] | SEM cells [2]
HPLM + 10% dialyzed FBS, 0.000781 µM | 107 | 114 | 98.9
HPLM + 10% dialyzed FBS, 0.00234 µM | 120 | 115 | 105
HPLM + 10% dialyzed FBS, 0.00702 µM | 101 | 116 | 110
HPLM + 10% dialyzed FBS, 0.0211 µM | 111 | 115 | 102
HPLM + 10% dialyzed FBS, 0.0632 µM | 109 | 110 | 106
HPLM + 10% dialyzed FBS, 0.19 µM | 109 | 109 | 113
HPLM + 10% dialyzed FBS, 0.569 µM | 118 | 111 | 111
HPLM + 10% dialyzed FBS, 1.71 µM | 108 | 105 | 96.3
HPLM + 10% dialyzed FBS, 5.12 µM | 101 | 107 | 94.4
HPLM + 10% dialyzed FBS, 15.4 µM | 114 | 101 | 93.9
HPLM + 10% dialyzed FBS, 46.1 µM | 101 | 83.4 | 98.9
RPMI 5 mM glucose + 10% FBS, 0.000781 µM | 102 | 111 | 96.3
RPMI 5 mM glucose + 10% FBS, 0.00234 µM | 120 | 112 | 108
RPMI 5 mM glucose + 10% FBS, 0.00702 µM | 113 | 106 | 117
RPMI 5 mM glucose + 10% FBS, 0.0211 µM | 110 | 110 | 114
RPMI 5 mM glucose + 10% FBS, 0.0632 µM | 120 | 109 | 102
RPMI 5 mM glucose + 10% FBS, 0.19 µM | 120 | 111 | 105
RPMI 5 mM glucose + 10% FBS, 0.569 µM | 107 | 115 | 105
RPMI 5 mM glucose + 10% FBS, 1.71 µM | 118 | 102 | 98.8
RPMI 5 mM glucose + 10% FBS, 5.12 µM | 98 | 107 | 107
RPMI 5 mM glucose + 10% FBS, 15.4 µM | 95.6 | 89 | 89.6
RPMI 5 mM glucose + 10% FBS, 46.1 µM | 118 | 86.2 | 75.9
RPMI 5 mM glucose + 10% dialyzed FBS, 0.000781 µM | 106 | 113 | 103
RPMI 5 mM glucose + 10% dialyzed FBS, 0.00234 µM | 102 | 110 | 107
RPMI 5 mM glucose + 10% dialyzed FBS, 0.00702 µM | 102 | 114 | 102
RPMI 5 mM glucose + 10% dialyzed FBS, 0.0211 µM | 114 | 122 | 111
RPMI 5 mM glucose + 10% dialyzed FBS, 0.0632 µM | 113 | 116 | 117
RPMI 5 mM glucose + 10% dialyzed FBS, 0.19 µM | 104 | 113 | 101
RPMI 5 mM glucose + 10% dialyzed FBS, 0.569 µM | 112 | 104 | 114
RPMI 5 mM glucose + 10% dialyzed FBS, 1.71 µM | 108 | 111 | 96.9
RPMI 5 mM glucose + 10% dialyzed FBS, 5.12 µM | 93.7 | 104 | 101
RPMI 5 mM glucose + 10% dialyzed FBS, 15.4 µM | 114 | 102 | 113
RPMI 5 mM glucose + 10% dialyzed FBS, 46.1 µM | 98.8 | 73.5 | 82.1

AUC of viability dose-response curve
Conditions | NOMO1 [4] | P12-Ichikawa [6] | SEM cells [5]
HPLM + 10% dialyzed FBS | 467 | 460 | 460
RPMI 5 mM glucose + 10% FBS | 467 | 462 | 463
RPMI 5 mM glucose + 10% dialyzed FBS | 472 | 460 | 472

CN1CCC(CC1)=C2C3=C(C=CC=C3)\C=C/C4=C2C=CC=C4
cell viability [%]
Conditions | NOMO1 [1] | P12-Ichikawa [3] | SEM cells [2]
HPLM + 10% dialyzed FBS, 0.000781 µM | 98.6 | 106 | 102
HPLM + 10% dialyzed FBS, 0.00234 µM | 118 | 125 | 109
HPLM + 10% dialyzed FBS, 0.00702 µM | 113 | 117 | 120
HPLM + 10% dialyzed FBS, 0.0211 µM | 130 | 130 | 121
HPLM + 10% dialyzed FBS, 0.0632 µM | 133 | 122 | 125
HPLM + 10% dialyzed FBS, 0.19 µM | 141 | 122 | 126
HPLM + 10% dialyzed FBS, 0.569 µM | 147 | 126 | 123
HPLM + 10% dialyzed FBS, 1.71 µM | 133 | 133 | 112
HPLM + 10% dialyzed FBS, 5.12 µM | 121 | 128 | 131
HPLM + 10% dialyzed FBS, 15.4 µM | 124 | 118 | 105
HPLM + 10% dialyzed FBS, 46.1 µM | 93.4 | 108 | 103
RPMI 5 mM glucose + 10% FBS, 0.000781 µM | – | – | 118
RPMI 5 mM glucose + 10% FBS, 0.00234 µM | – | – | 121
RPMI 5 mM glucose + 10% FBS, 0.00702 µM | – | – | 126
RPMI 5 mM glucose + 10% FBS, 0.0211 µM | – | – | 115
RPMI 5 mM glucose + 10% FBS, 0.0632 µM | – | – | 125
RPMI 5 mM glucose + 10% FBS, 0.19 µM | – | – | 135
RPMI 5 mM glucose + 10% FBS, 0.569 µM | – | – | 139
RPMI 5 mM glucose + 10% FBS, 1.71 µM | – | – | 138
RPMI 5 mM glucose + 10% FBS, 5.12 µM | – | – | 130
RPMI 5 mM glucose + 10% FBS, 15.4 µM | – | – | 113
RPMI 5 mM glucose + 10% FBS, 46.1 µM | – | – | 101
RPMI 5 mM glucose + 10% dialyzed FBS, 0.000781 µM | – | – | 101
RPMI 5 mM glucose + 10% dialyzed FBS, 0.00234 µM | – | – | 109
RPMI 5 mM glucose + 10% dialyzed FBS, 0.00702 µM | – | – | 117
RPMI 5 mM glucose + 10% dialyzed FBS, 0.0211 µM | – | – | 117
RPMI 5 mM glucose + 10% dialyzed FBS, 0.0632 µM | – | – | 133
RPMI 5 mM glucose + 10% dialyzed FBS, 0.19 µM | – | – | 134
RPMI 5 mM glucose + 10% dialyzed FBS, 0.569 µM | – | – | 130
RPMI 5 mM glucose + 10% dialyzed FBS, 1.71 µM | – | – | 104
RPMI 5 mM glucose + 10% dialyzed FBS, 5.12 µM | – | – | 119
RPMI 5 mM glucose + 10% dialyzed FBS, 15.4 µM | – | – | 112
RPMI 5 mM glucose + 10% dialyzed FBS, 46.1 µM | – | – | 86.7

AUC of viability dose-response curve
Conditions | NOMO1 [4] | P12-Ichikawa [6] | SEM cells [5]
HPLM + 10% dialyzed FBS | 470 | 473 | 469
RPMI 5 mM glucose + 10% FBS | 467 | 467 | 467
RPMI 5 mM glucose + 10% dialyzed FBS | 468 | 477 | 468
